Earlier results in patent US5362498A, “Process for preparing a bioadhesive pharmaceutical dosage form and pharmaceutical dosage form thus prepared” (priority 1990, dated 1994).

Settings: metabolite produced by digestive tract absorption of morphinic active principles

## CN1CC[C@]23c4c5ccc(O)c4O[C@H]2[C@@H](O[C@@H]2O[C@H](C(=O)O)[C@@H](O)[C@H](O)[C@H]2O)C=C[C@H]3[C@H]1C5 [morphine 6-glucuronide]
  relative potency: 1.5 times
